Assay [1] addresses T1, human GPR10 (Homo sapiens (Human), UniProt P49683). The assay is described as follows: Antagonistic activity on PrRP-induced intracellular calcium mobilization in human GPR10-expressing HEK293 cells. The class given is cell-based. The conditions noted are these: PrRP 1 nM-induced intracellular calcium mobilization, Fluo-8. The protocol:
Pharmacological Test 2 Antagonistic Activity on GPR10 Using Human GPR10-Expressing HEK293 Cells.
Antagonistic activity of test compounds on PrRP-induced intracellular calcium mobilization was evaluated using GPR10-expressing HEK293 cells.
HEK293 cells expressing human GPR10 were maintained in Dulbecco's Modified Eagles' medium supplemented with 10% fetal bovine serum, 1% penicillin-streptomycin and 20 mM HEPES at 37° C. in a 5% CO2 incubator. GPR10-expressing HEK293 cells were placed in poly-D-lysine coated 96-well culture plates and cultured for 18-24 hr before the test at a density of 3×10^4 cells/well. […] The cells were incubated with test compounds for 15 min at room temperature, and then PrRP (the final concentration, 1 nM) was added into the medium. The changes in intracellular calcium-dependent fluorescence were monitored using a fluorescence imaging plate reader (FDSS3000, Hamamatsu Photonics K.K.). Fluo-8 fluorescence was measured with excitation at 490 nm and emission at 520 nm. The calcium-dependent fluorescence intensity was calculated by subtracting basal intensity (average intensity for 30 sec before agonist stimulation) from peak intensity for 60 sec after PrRP-stimulation, and then IC50 values were determined by nonlinear curve-fitting program, GraphPad Prism 5.
Background: Calcium flux is commonly read through the fluorescence of an indicator in the cells.

Assay [2] has as its target T1, human GPR10. In words: Inhibitory activity on binding of [3H]-PrRP to GPR10 (HEK 293 cell membrane fraction). The conditions noted are these: [3H]-PrRP 1 nM, human GPR10-expressing HEK 293 cell membrane fraction; Ki from IC50 by Cheng-Prussoff formula. The method, then:
Inhibitory Activity on Binding of [^3H]-PrRP to GPR10
Human GPR10 receptor expressing human embryonic kidney cells, HEK 293 cells, were cultured in Dulbecco's Modified Eagle's medium supplemented with 10% fetal bovine serum and 1% penicilline-streptmycin at 37° C., in 5% carbon dioxide gas conditions. The medium was removed and the cells were recovered in a phosphate buffer to prepare a cell suspension. The cell suspension was homogenated on ice by an ultrasonic cell homogenizer (Microson™ type XL200) and centrifuged at 40,000 g for 10 minutes at 4° C. After the supernatant was discarded, Buffer A (20 mM HEPES, 10 mM EDTA, 1 μl/ml protease inhibiting cocktail, pH 7.4) was added to the pellet. The pellet was suspended by the ultrasonic cell homogenizer, then the suspension was centrifuged at 40,000 g, for 10 minutes at 4° C. After this operation was repeated once again, the supernatant was discarded, Buffer B (20 mM HEPES, 0.1 mM EDTA, pH 7.4) was added to the pellet, and the pellet was suspended by the ultrasonic homogenizer. This was stored at a freezer of −80° C. as a cell membrane fraction until use in a binding test.
To each well of a 96-well plate, 150 μl of assay buffer (20 mM HEPES, 10 mM EDTA, 1 μl/ml protease inhibiting agent cocktail, pH 7.4), 20 μl of cell membrane fraction, 10 μl of test compound and [^3H]-PrRP (final concentration 1 nM) were added and incubated at room temperature for 90 minutes. After completion of the reaction, using a cell harvester, the cell-membrane fraction sample product was filtered under aspiration by a glass fiber filter plate (Unifilter; GF/B) previously treated with 0.5% polyethylene imine. The filter was washed with a 50 mM Tris hydrochloric acid buffer (pH 7.4) three times. After the filter was dried in a dryer (50° C.) for about 3 hours, 40 μl of liquid scintillation cocktail (MicroScint-O) was added to each well and radio activity was measured by a scintillation counter (Packard Topcount). The radio activity in the presence of an excessive amount of non-labeled PrRP (final concentration: 100 nM) was regarded as non-specific binding.
The binding inhibition rate was calculated based on calculating formula: 100−(radio activity when a compound is added−radio activity of non-specific binding)÷(radio activity when a solvent is added−radio activity of non-specific binding)×100.
An IC50 value was calculated based on the concentration dependent reaction using a non-linear analysis program and a Ki value was calculated using Cheng-Prussoff formula.

Structures can show the parent of a compound that is named as a salt.

By IC50 is commonly meant the point on the concentration scale where inhibition reaches its midpoint. By Ki is commonly meant the dissociation constant of the complex between target and ligand, obtained from inhibition or displacement. The low end stands for a stronger hold on the target, the high end for a looser hold on the target.

T1 sequence (P49683 whole entry): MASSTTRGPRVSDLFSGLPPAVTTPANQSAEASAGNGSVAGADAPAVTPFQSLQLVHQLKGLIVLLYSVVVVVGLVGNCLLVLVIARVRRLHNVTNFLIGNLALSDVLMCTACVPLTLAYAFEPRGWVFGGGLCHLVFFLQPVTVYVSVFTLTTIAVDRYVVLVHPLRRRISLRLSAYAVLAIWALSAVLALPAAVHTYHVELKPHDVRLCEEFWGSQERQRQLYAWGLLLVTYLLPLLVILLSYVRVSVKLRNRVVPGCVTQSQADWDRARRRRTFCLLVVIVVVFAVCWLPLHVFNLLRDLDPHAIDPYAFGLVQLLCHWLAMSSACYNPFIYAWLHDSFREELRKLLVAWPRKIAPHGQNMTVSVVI

Take `C#CCn1c(N[C@@H](C)c2ccc(C(F)(F)F)cc2)nc2c(c1=O)CN(C(=O)c1ccc(C#N)cc1F)CC2` [Example 1, 6-(4-cyano-2-fluorobenzoyl)-3-propargyl-2-(S)-{1-[4-(trifluoromethyl)phenyl]ethylamino}-5,6,7,8-tetrahydropyrido[4,3-d]pyrimidin-4-(3H)-one hydrochloride]: the IC50 on human GPR10 [1] stood at 42 nM. On human GPR10 [2], this compound yielded an inhibition constant (Ki) of 5 nM. The like results for `C#CCn1c(N[C@@H](C)c2ccc(C(F)(F)F)cc2)nc2c(c1=O)CN(C(=O)c1ccc(Cl)cc1)CC2` [Example 2, 6-(4-chlorobenzoyl)-3-propargyl-2-(S)-{1-[4-(trifluoromethyl)phenyl]ethylamino}-5,6,7,8-tetrahydropyrido[4,3-d]pyrimidin-4-(3H)-one hydrochloride] were, in that order, 378 nM and 29 nM. Consider `C#CCn1c(N[C@@H](C)c2ccc(Cl)cc2)nc2c(c1=O)CN(C(=O)c1ccc(Cl)cc1)CC2` [Example 3, 6-(4-chlorobenzoyl)-3-propargyl-2-(S)-{1-[4-chlorophenyl]ethylamino}-5,6,7,8-tetrahydropyrido[4,3-d]pyrimidin-4-(3H)-one], for which the concentration for half-maximal inhibition (IC50) at human GPR10 [1] was found to be 1720 nM. Further, at human GPR10 [2], the Ki is 42 nM. Taken in the same sequence, the figures for `C[C@H](Nc1nc2c(c(=O)n1N(C)C)CN(C(=O)c1ccc(C#N)cc1F)CC2)c1ccc(C(F)(F)F)cc1` [Example 5, 6-(4-cyano-2-fluorobenzoyl)-3-dimethylamino-2-(S)-{1-[4-(trifluoromethyl)phenyl]ethylamino}-5,6,7,8-tetrahydropyrido[4,3-d]pyrimidin-4-(3H)-one hydrochloride] were 46 nM and 8 nM.

As for `COn1c(N[C@@H](C)C2CCCCC2)nc2c(c1=O)CN(C(=O)c1ccc(C#N)cc1F)CC2` [Example 2469, 4-[2-((S)-1-cyclohexylethylamino)-3-methoxy-4-oxo-3,5,7,8-tetrahydro-4H-pyrido[4,3-d]pyrimidine-6-carbonyl]-3-fluorobenzonitrile], the affinity at human GPR10 [2], expressed as Ki, was 56 nM. This lies in the double-digit nanomolar range. On the same count and under the same terms, with `COn1c(N[C@@H](C)C2CCCCC2)nc2c(c1=O)CN(C(=O)c1ccc(Cl)cc1)CC2` [Example 2470, 6-(4-chlorobenzoyl)-2-((S)-1-cyclohexyl-ethylamino)-3-methoxy-5,6,7,8-tetrahydro-3H-pyrido[4,3-d]pyrimidin-4-one] the figure was 108 nM. On the same count and under the same terms, with `COn1c(N[C@@H](C)c2ccc(C(F)(F)F)cc2)nc2c(c1=O)CN(C(=O)c1cc3ccccc3s1)CC2` [Example 2474, 6-(benzo[b]thiophene-2-carbonyl)-3-methoxy-2-[(S)-1-(4-trifluoromethylphenyl)ethylamino]-5,6,7,8-tetrahydro-3H-pyrido[4,3-d]pyrimidin-4-one] the figure was 15 nM; with `COn1c(N2CCCC2c2ccc(C(F)(F)F)cc2)nc2c(c1=O)CN(C(=O)c1ccc(Cl)cc1)CC2` (stereo not drawn) [Example 2475, 6-(4-chlorobenzoyl)-3-methoxy-2-[2-(4-trifluoromethylphenyl)pyrrolidin-1-yl]-5,6,7,8-tetrahydro-3H-pyrido[4,3-d]pyrimidin-4-one], 34 nM; with `C#CCn1c(N[C@@H](C)c2ccc(C(F)(F)F)cc2)nc2c(c1=O)CN(C(=O)c1cccc(C#N)c1)CC2` [Example 2476, 3-{4-oxo-3-(2-propynyl)-2-[(S)-1-(4-trifluoromethylphenyl)ethylamino]-3,5,7,8-tetrahydro-4H-pyrido[4,3-d]pyrimidine-6-carbonyl}benzonitrile], 9 nM. Still for that read-out and setting: as for `COn1c(NCc2ccc(C(F)(F)F)cc2)nc2c(c1=O)CN(C(=O)c1ccc(Cl)cc1)CC2` [Example 2477, 6-(4-chlorobenzoyl)-3-methoxy-2-(4-trifluoromethylbenzylamino)-5,6,7,8-tetrahydro-3H-pyrido[4,3-d]pyrimidin-4-one hydrochloride], the figure is 39 nM; as for `C#CCn1c(N[C@@H](C)c2ccc(C(F)(F)F)cc2)nc2c(c1=O)CN(C(=O)c1c(F)cccc1F)CC2` [Example 2478, 6-(2,6-difluorobenzoyl)-3-(2-propynyl)-2-[(S)-1-(4-trifluoromethylphenyl)ethylamino]-5,6,7,8-tetrahydro-3H-pyrido[4,3-d]pyrimidin-4-one], 9 nM.

For the compound `COn1c(N[C@H](c2ccc(Cl)cc2)C(C)C)nc2c(c1=O)CN(C(=O)c1ccc3c(c1)OCCO3)CC2` [Example 2479, 2-[(S)-1-(4-chlorophenyl)-2-methylpropylamino]-6-(2,3-dihydrobenzo[1,4]dioxine-6-carbonyl)-3-methoxy-5,6,7,8-tetrahydro-3H-pyrido[4,3-d]pyrimidin-4-one], affinity on human GPR10 [2] was put at a Ki of 42 nM. This Ki lies about 4.7-fold higher than the previous one. Take `COn1c(N[C@H](c2ccc(Cl)cc2)C(C)C)nc2c(c1=O)CN(C(=O)c1ccc(-n3ccnc3)cc1)CC2` [Example 2481, 2-[(S)-1-(4-chlorophenyl)-2-methylpropylamino]-6-(4-imidazol-1-ylbenzoyl)-3-methoxy-5,6,7,8-tetrahydro-3H-pyrido[4,3-d]pyrimidin-4-one]: at human GPR10 [2], the affinity corresponds to a Ki of 31 nM. This Ki and that of the compound before are within 1.5-fold of each other. The same measure, in the same setting: with `CC[C@H](Nc1nc2c(c(=O)n1OC)CN(C(=O)c1ccc(C#N)cc1F)CC2)c1ccc(C(F)(F)F)cc1` [Example 2482, 3-fluoro-4-{3-methoxy-4-oxo-2-[(S)-1-(4-trifluoromethylphenyl)propylamino]-3,5,7,8-tetrahydro-4H-pyrido[4,3-d]pyrimidine-6-carbonyl}benzonitrile] the figure was 8 nM; with `COn1c(N[C@H](c2ccc(Cl)cc2)C(C)C)nc2c(c1=O)CN(C(=O)c1cc3ccccn3n1)CC2` [Example 2483, 2-[(S)-1-(4-chlorophenyl)-2-methylpropylamino]-3-methoxy-6-(pyrazolo[1,5-a]pyridine-2-carbonyl)-5,6,7,8-tetrahydro-3H-pyrido[4,3-d]pyrimidin-4-one], 13 nM.

Turning to `COn1c(N[C@H](c2ccc(Cl)cc2)C(C)C)nc2c(c1=O)CN(C(=O)c1ccc3c(c1)CCC(=O)N3C)CC2` [Example 2487, 2-[(S)-1-(4-chlorophenyl)-2-methylpropylamino]-3-methoxy-6-(1-methyl-2-oxo-1,2,3,4-tetrahydro-quinoline-6-carbonyl)-5,6,7,8-tetrahydro-3H-pyrido[4,3-d]pyrimidin-4-one], the inhibitory constant (Ki) at human GPR10 [2] stood at 24 nM. Compared with the last compound, the Ki is about 1.8-fold higher.

For `COn1c(N[C@H](c2ccc(Cl)cc2)C(C)C)nc2c(c1=O)CN(C(=O)c1cc3ccccc3cn1)CC2` [Example 2489, 2-[(S)-1-(4-chlorophenyl)-2-methylpropylamino]-6-(isoquinoline-3-carbonyl)-3-methoxy-5,6,7,8-tetrahydro-3H-pyrido[4,3-d]pyrimidin-4-one], on human GPR10 [2], the Ki amounted to 26 nM. Still for that read-out and setting: as for `CCOc1ccc(CNc2nc3c(c(=O)n2OC)CN(C(=O)c2ccc(C#N)cc2F)CC3)cc1` [Example 2490, 4-[2-(4-ethoxybenzylamino)-3-methoxy-4-oxo-3,5,7,8-tetrahydro-4H-pyrido[4,3-d]pyrimidine-6-carbonyl]-3-fluorobenzonitrile], the figure is 237 nM. Same read-out and setting: as for `C#CCCn1c(N[C@@H](C)c2ccc(C(F)(F)F)cc2)nc2c(c1=O)CN(C(=O)c1ccc(C(=O)N(C)C)cc1)CC2` [Example 2494, 4-{3-(3-butynyl)-4-oxo-2-[(S)-1-(4-trifluoromethylphenyl)ethylamino]-3,5,7,8-tetrahydro-4H-pyrido[4,3-d]pyrimidine-6-carbonyl}-N,N-dimethylbenzamide], the figure is 201 nM. As for `COn1c(N[C@@H](C)c2ccc(Cl)cc2)nc2c(c1=O)CN(C(=O)c1cc3cccnc3s1)CC2` [Example 2495, 2-[(S)-1-(4-chlorophenyl)ethylamino]-3-methoxy-6-(thieno[2,3-b]pyridine-2-carbonyl)-5,6,7,8-tetrahydro-3H-pyrido[4,3-d]pyrimidin-4-one hydrochloride], affinity on human GPR10 [2] was put at a Ki of 3 nM.

(Values after US9206173B2, “Heterocyclic compounds for the treatment of stress-related conditions” (OTSUKA PHARMACEUTICAL CO., LTD., priority 2009, dated 2015).)
